Measurements reported in article PMC3694096, “Development of Novel In Vivo Chemical Probes to Address CNS Protein Kinase Involvement in Synaptic Dysfunction” (PLoS ONE, 2013).
Where two headings read alike, the source gives them in different places.

Legend:
[1] = target: T1, TrkB (Homo sapiens, UniProt Q16620); assay: Kinome profiler screen; format: biochemical
T1 construct: purchased Millipore KinaseProfiler

[2] = target: T2, LKB1 (Homo sapiens, UniProt Q15831); assay: Kinome profiler screen; format: biochemical; details: at 20,000 nM inhibitor; kinase activity remaining
T2 construct: purchased Millipore KinaseProfiler

[3] = target: T3, MELK (Homo sapiens, UniProt Q14680); assay: Kinome profiler screen; format: biochemical; details: at 20,000 nM inhibitor; kinase activity remaining
T3 construct: purchased Millipore KinaseProfiler

[4] = target: T4, CaMKIIβ (Homo sapiens, UniProt Q13554); assay: Kinome profiler screen; format: biochemical; details: at 20,000 nM inhibitor; kinase activity remaining
T4 construct: purchased Millipore KinaseProfiler

[5] = target: T5, Met(Y1248C) (Homo sapiens, UniProt P08581, Y1230C); assay: Kinome profiler screen; format: biochemical; details: at 20,000 nM inhibitor; kinase activity remaining
T5 construct: purchased Millipore KinaseProfiler

[6] = target: T6, EphA1 (Homo sapiens, UniProt P21709); assay: Kinome profiler screen; format: biochemical; details: at 20,000 nM inhibitor; kinase activity remaining
T6 construct: purchased Millipore KinaseProfiler

[7] = target: T7, WNK2 (Homo sapiens, UniProt Q9Y3S1); assay: Kinome profiler screen; format: biochemical; details: at 20,000 nM inhibitor; kinase activity remaining
T7 construct: purchased Millipore KinaseProfiler

[8] = target: T8, VRK2 (Homo sapiens, UniProt Q86Y07); assay: Kinome profiler screen; format: biochemical; details: at 20,000 nM inhibitor; kinase activity remaining
T8 construct: purchased Millipore KinaseProfiler
T8 sequence (Q86Y07 whole entry): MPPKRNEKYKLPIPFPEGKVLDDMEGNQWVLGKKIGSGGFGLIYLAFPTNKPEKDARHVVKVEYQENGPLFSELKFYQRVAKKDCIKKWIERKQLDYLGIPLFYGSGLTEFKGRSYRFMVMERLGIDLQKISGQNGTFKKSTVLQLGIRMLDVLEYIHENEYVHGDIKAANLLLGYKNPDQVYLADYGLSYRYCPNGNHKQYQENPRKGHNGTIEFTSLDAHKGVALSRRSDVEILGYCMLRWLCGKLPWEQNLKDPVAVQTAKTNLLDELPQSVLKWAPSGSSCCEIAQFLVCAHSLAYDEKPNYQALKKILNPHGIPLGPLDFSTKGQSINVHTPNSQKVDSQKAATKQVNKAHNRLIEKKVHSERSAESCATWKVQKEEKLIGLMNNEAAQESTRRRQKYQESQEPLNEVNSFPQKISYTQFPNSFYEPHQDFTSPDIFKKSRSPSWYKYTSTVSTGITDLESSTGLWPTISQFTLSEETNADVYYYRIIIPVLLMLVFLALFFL

[9] = target: T9, CHK2(R145W) (Homo sapiens, UniProt O96017, R145W); assay: Kinome profiler screen; format: biochemical; details: at 20,000 nM inhibitor; kinase activity remaining
T9 construct: purchased Millipore KinaseProfiler

[10] = target: T10, IR, activated (Homo sapiens, UniProt P06213); assay: Kinome profiler screen; format: biochemical; details: at 20,000 nM inhibitor; kinase activity remaining
T10 construct: purchased Millipore KinaseProfiler

[11] = target: T11, MRCKα (Homo sapiens, UniProt Q5VT25); assay: Kinome profiler screen; format: biochemical; details: at 20,000 nM inhibitor; kinase activity remaining
T11 construct: purchased Millipore KinaseProfiler

[12] = target: T12, DAPK2 (Homo sapiens, UniProt Q9UIK4); assay: Kinome profiler screen; format: biochemical; details: at 20,000 nM inhibitor; kinase activity remaining
T12 construct: purchased Millipore KinaseProfiler

[13] = target: T13, Ret(V804M) (Homo sapiens, UniProt P07949, V804M); assay: Kinome profiler screen; format: biochemical; details: at 20,000 nM inhibitor; kinase activity remaining
T13 construct: purchased Millipore KinaseProfiler

[14] = target: T14, Fer (Homo sapiens, UniProt P16591); assay: Kinome profiler screen; format: biochemical; details: at 20,000 nM inhibitor; kinase activity remaining
T14 construct: purchased Millipore KinaseProfiler

[15] = target: T15, Flt1 (Homo sapiens, UniProt P17948); assay: Kinome profiler screen; format: biochemical; details: for activity at 20 µM: at 20,000 nM inhibitor, kinase activity remaining
T15 construct: purchased Millipore
T15 sequence (P17948 27-1338): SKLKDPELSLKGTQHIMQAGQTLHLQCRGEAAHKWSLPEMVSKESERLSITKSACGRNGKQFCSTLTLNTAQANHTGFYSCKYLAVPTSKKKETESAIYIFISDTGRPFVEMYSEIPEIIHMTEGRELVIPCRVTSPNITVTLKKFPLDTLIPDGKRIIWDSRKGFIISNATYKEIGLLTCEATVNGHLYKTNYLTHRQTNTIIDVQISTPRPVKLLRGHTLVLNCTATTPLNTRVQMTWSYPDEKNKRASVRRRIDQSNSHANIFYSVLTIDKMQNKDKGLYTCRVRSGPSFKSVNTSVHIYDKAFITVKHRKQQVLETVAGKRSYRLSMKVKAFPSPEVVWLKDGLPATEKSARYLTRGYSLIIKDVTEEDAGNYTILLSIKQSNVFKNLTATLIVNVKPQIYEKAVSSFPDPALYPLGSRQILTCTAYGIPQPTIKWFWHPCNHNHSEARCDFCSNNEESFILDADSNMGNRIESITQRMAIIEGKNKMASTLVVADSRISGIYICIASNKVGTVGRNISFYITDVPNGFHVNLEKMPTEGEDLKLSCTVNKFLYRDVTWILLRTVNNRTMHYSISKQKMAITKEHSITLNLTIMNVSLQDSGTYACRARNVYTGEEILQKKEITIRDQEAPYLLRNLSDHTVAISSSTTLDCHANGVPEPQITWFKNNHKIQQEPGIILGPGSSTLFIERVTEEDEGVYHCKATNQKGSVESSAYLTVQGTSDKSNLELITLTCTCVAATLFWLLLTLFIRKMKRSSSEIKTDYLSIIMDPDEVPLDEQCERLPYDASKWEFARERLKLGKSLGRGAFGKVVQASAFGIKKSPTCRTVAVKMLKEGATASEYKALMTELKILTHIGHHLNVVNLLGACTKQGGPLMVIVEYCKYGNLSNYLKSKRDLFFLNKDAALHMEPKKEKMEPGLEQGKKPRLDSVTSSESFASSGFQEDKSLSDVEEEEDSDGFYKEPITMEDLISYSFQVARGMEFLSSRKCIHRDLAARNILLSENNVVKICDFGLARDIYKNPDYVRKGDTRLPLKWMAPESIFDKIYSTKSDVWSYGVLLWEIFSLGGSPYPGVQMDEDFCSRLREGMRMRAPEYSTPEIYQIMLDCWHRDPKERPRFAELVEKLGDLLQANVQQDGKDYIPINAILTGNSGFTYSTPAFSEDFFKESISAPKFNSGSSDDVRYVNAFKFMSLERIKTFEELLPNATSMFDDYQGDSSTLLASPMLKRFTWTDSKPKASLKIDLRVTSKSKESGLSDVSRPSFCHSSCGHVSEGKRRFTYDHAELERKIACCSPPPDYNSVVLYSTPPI

[16] = target: T16, TAO1 (Homo sapiens, UniProt Q7L7X3); assay: Kinome profiler screen; format: biochemical; details: at 20,000 nM inhibitor; kinase activity remaining
T16 construct: purchased Millipore KinaseProfiler

[17] = target: T17, CDK2/cyclinE (Homo sapiens, UniProt P24941); assay: Kinome profiler screen; format: biochemical; details: at 20,000 nM inhibitor; kinase activity remaining
T17 construct: purchased Millipore KinaseProfiler

[18] = target: T18, CHK2(I157T) (Homo sapiens, UniProt O96017, I157T); assay: Kinome profiler screen; format: biochemical; details: at 20,000 nM inhibitor; kinase activity remaining
T18 construct: purchased Millipore KinaseProfiler

[19] = target: T19, Flt3(D835Y) (Homo sapiens, UniProt P36888, D835Y); assay: Kinome profiler screen; format: biochemical; details: at 20,000 nM inhibitor; kinase activity remaining
T19 construct: purchased Millipore KinaseProfiler

[20] = target: T20, CLK3 (Homo sapiens, UniProt P49761); assay: Kinome profiler screen; format: biochemical; details: at 20,000 nM inhibitor; kinase activity remaining
T20 construct: purchased Millipore KinaseProfiler
T20 sequence (P49761 whole entry): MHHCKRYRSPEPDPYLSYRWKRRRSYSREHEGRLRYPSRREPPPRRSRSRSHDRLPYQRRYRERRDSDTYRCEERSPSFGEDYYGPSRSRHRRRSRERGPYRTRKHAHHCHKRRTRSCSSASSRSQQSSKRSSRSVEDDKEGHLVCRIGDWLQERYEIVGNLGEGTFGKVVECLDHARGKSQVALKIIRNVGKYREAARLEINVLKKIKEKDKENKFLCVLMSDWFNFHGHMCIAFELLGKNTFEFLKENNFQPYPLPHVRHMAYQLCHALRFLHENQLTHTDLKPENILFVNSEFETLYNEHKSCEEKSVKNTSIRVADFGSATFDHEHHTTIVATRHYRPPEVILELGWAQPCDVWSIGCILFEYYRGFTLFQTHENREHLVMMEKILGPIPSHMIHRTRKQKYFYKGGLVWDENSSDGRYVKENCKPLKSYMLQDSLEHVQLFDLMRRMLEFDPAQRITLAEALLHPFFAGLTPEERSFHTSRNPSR

[21] = target: T21, CHK1 (Homo sapiens, UniProt O14757); assay: Kinome profiler screen; format: biochemical; details: at 20,000 nM inhibitor; kinase activity remaining
T21 construct: purchased Millipore KinaseProfiler

[22] = target: T22, Pim-1 (Homo sapiens, UniProt P11309); assay: Kinome profiler screen; format: biochemical; details: at 20,000 nM inhibitor; kinase activity remaining
T22 construct: purchased Millipore KinaseProfiler

[23] = target: T23, Ron (Homo sapiens, UniProt Q04912); assay: Kinome profiler screen; format: biochemical; details: at 20,000 nM inhibitor; kinase activity remaining
T23 construct: purchased Millipore KinaseProfiler

[24] = target: T24, FGFR3 (Homo sapiens, UniProt P22607); assay: Kinome profiler screen; format: biochemical; details: at 20,000 nM inhibitor; kinase activity remaining
T24 construct: purchased Millipore KinaseProfiler

[25] = target: T25, Aurora-B (Homo sapiens, UniProt Q96GD4); assay: Kinome profiler screen; format: biochemical; details: at 20,000 nM inhibitor; kinase activity remaining
T25 construct: purchased Millipore KinaseProfiler
T25 sequence (Q96GD4 whole entry): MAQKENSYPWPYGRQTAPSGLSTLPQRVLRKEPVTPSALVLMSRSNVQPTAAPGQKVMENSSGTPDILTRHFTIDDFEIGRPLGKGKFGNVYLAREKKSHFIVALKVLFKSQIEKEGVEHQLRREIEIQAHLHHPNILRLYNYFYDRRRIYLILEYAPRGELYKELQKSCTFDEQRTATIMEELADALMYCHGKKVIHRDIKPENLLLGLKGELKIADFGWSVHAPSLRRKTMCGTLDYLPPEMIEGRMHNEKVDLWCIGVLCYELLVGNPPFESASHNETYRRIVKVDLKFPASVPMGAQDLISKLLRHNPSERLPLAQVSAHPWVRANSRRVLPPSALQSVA

[26] = system: BV-2 cells; assay: IL-1β production in BV-2 cells stimulated with TLR ligands; format: cell-based, murine; details: ligands for TLR2, TLR4, TLR7/8, TLR9
[27] = target: T26, cKit(D816V) (Homo sapiens, UniProt P10721, D816V); assay: Kinome profiler screen; format: biochemical; details: at 20,000 nM inhibitor; kinase activity remaining
T26 construct: purchased Millipore KinaseProfiler

[28] = target: T27, TGFBR1 (Homo sapiens, UniProt P36897); assay: Kinome profiler screen; format: biochemical; details: at 20,000 nM inhibitor; kinase activity remaining
T27 construct: purchased Millipore KinaseProfiler

[29] = target: T28, PKCθ (Homo sapiens, UniProt Q04759); assay: Kinome profiler screen; format: biochemical; details: at 20,000 nM inhibitor; kinase activity remaining
T28 construct: purchased Millipore KinaseProfiler
T28 sequence (Q04759 whole entry): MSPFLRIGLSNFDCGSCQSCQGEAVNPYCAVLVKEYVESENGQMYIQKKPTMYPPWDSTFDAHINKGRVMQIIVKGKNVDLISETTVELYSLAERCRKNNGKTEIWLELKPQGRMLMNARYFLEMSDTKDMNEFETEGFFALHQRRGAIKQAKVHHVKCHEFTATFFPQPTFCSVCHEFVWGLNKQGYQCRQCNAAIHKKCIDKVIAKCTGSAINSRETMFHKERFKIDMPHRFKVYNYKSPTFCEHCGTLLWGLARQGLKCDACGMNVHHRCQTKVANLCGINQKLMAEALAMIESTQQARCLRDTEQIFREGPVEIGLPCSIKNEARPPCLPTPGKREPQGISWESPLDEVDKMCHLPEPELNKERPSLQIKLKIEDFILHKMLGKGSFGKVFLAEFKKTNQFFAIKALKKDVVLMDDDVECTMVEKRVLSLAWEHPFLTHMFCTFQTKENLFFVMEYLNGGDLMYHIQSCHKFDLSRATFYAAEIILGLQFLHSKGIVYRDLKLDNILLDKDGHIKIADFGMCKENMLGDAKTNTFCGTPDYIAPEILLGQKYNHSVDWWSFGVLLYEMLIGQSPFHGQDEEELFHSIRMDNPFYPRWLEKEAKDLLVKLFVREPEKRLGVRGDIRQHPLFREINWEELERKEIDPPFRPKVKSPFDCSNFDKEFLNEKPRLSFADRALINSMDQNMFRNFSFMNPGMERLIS

[30] = target: T29, TSSK1 (Homo sapiens, UniProt Q9BXA7); assay: Kinome profiler screen; format: biochemical; details: at 20,000 nM inhibitor; kinase activity remaining
T29 construct: purchased Millipore KinaseProfiler

[31] = target: T30, Abl(m) (Mus musculus, UniProt P00520); assay: Kinome profiler screen; format: biochemical; details: at 20,000 nM inhibitor; kinase activity remaining
T30 construct: purchased Millipore KinaseProfiler

[32] = target: T31, PKCβI (Homo sapiens, UniProt P05771); assay: Kinome profiler screen; format: biochemical; details: at 20,000 nM inhibitor; kinase activity remaining
T31 construct: purchased Millipore KinaseProfiler

[33] = target: T32, Fgr (Homo sapiens, UniProt P09769); assay: Kinome profiler screen; format: biochemical; details: at 20,000 nM inhibitor; kinase activity remaining
T32 construct: purchased Millipore KinaseProfiler

[34] = target: T33, NEK2 (Homo sapiens, UniProt P51955); assay: Kinome profiler screen; format: biochemical; details: at 20,000 nM inhibitor; kinase activity remaining
T33 construct: purchased Millipore KinaseProfiler

[35] = target: T34, PKCη (Homo sapiens, UniProt P24723); assay: Kinome profiler screen; format: biochemical; details: at 20,000 nM inhibitor; kinase activity remaining
T34 construct: purchased Millipore KinaseProfiler

[36] = target: T35, Rsk2 (Homo sapiens, UniProt P51812); assay: Kinome profiler screen; format: biochemical; details: at 20,000 nM inhibitor; kinase activity remaining
T35 construct: purchased Millipore KinaseProfiler

[37] = target: T36, Yes (Homo sapiens, UniProt P07947); assay: Kinome profiler screen; format: biochemical; details: at 20,000 nM inhibitor; kinase activity remaining
T36 construct: purchased Millipore KinaseProfiler

[38] = target: T37, PKCβII (Homo sapiens, UniProt P05771); assay: Kinome profiler screen; format: biochemical; details: at 20,000 nM inhibitor; kinase activity remaining
T37 construct: purchased Millipore KinaseProfiler
T37 sequence (P05771 1-673 isoform P05771-2): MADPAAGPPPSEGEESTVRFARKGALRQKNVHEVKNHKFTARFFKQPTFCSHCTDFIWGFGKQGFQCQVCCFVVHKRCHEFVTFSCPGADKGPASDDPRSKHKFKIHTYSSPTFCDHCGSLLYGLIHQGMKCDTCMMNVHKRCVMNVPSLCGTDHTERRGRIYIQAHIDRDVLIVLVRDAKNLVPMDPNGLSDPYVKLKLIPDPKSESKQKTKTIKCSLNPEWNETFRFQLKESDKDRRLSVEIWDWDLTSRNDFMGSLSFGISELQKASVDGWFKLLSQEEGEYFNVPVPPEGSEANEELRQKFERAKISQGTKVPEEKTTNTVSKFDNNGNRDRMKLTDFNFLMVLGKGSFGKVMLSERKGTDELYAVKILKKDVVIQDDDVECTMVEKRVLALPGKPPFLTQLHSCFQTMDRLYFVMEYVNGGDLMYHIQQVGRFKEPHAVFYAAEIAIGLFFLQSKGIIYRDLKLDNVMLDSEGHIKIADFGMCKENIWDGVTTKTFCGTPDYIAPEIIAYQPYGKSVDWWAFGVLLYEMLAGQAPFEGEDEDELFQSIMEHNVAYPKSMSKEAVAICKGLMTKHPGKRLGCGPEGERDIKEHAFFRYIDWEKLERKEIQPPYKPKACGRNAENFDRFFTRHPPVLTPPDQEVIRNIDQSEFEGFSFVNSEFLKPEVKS

[39] = target: T38, Rsk3 (Homo sapiens, UniProt Q15349); assay: Kinome profiler screen; format: biochemical; details: at 20,000 nM inhibitor; kinase activity remaining
T38 construct: purchased Millipore KinaseProfiler

[40] = target: T39, PKD2 (Homo sapiens, UniProt Q9BZL6); assay: Kinome profiler screen; format: biochemical; details: at 20,000 nM inhibitor; kinase activity remaining
T39 construct: purchased Millipore KinaseProfiler

[41] = target: T40, NEK7 (Homo sapiens, UniProt Q8TDX7); assay: Kinome profiler screen; format: biochemical; details: at 20,000 nM inhibitor; kinase activity remaining
T40 construct: purchased Millipore KinaseProfiler
T40 sequence (Q8TDX7 whole entry): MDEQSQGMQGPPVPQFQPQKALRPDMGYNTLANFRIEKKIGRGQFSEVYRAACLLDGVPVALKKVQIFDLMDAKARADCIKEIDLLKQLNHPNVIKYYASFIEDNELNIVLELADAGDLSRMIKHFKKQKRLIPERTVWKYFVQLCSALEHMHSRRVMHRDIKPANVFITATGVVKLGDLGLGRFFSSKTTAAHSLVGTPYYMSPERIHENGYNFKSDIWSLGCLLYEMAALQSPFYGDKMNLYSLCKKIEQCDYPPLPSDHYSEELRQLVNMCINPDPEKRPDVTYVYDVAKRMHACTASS

[42] = target: T41, EphA2 (Homo sapiens, UniProt P29317); assay: Kinome profiler screen; format: biochemical; details: at 20,000 nM inhibitor; kinase activity remaining
T41 construct: purchased Millipore KinaseProfiler

[43] = target: T42, PRAK (Homo sapiens, UniProt Q8IW41); assay: Kinome profiler screen; format: biochemical; details: at 20,000 nM inhibitor; kinase activity remaining
T42 construct: purchased Millipore KinaseProfiler

[44] = target: T43, RIPK2 (Homo sapiens, UniProt O43353); assay: Kinome profiler screen; format: biochemical; details: at 20,000 nM inhibitor; kinase activity remaining
T43 construct: purchased Millipore KinaseProfiler
T43 sequence (O43353 whole entry): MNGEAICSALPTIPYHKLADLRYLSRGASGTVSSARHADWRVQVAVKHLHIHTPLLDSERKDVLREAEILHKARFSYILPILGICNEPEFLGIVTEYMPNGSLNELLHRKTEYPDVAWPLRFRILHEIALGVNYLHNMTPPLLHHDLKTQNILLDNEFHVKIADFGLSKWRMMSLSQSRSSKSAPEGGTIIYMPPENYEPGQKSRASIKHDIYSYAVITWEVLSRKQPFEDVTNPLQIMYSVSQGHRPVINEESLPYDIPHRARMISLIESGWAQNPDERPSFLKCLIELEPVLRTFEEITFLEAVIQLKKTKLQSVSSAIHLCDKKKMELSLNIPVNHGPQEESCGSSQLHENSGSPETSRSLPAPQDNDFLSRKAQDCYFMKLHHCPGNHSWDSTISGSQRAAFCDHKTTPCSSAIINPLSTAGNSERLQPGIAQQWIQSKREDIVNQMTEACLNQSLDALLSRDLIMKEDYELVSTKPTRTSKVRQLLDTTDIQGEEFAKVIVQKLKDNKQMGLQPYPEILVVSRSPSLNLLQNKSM

CN(C)c1cc(-c2ccncc2)c(-c2cccc3ccccc23)nn1 [MW181, N,N-dimethyl-6-(naphthalen-1-yl)-5-(pyridin-4-yl)pyridazin-3-amine]
activity at 20 µM ([1]; at 20,000 nM inhibitor, kinase activity remaining, read-out: % Activity): 109% | activity at 20 µM [2]: 100% | activity at 20 µM [3]: 91% | activity at 20 µM [4]: 108% | activity at 20 µM [5]: 100% | activity at 20 µM [6]: 76% | activity at 20 µM [7]: 92% | activity at 20 µM [8]: 86% | activity at 20 µM [9]: 91% | activity at 20 µM [10]: 100% | activity at 20 µM [11]: 103% | activity at 20 µM [12]: 106% | activity at 20 µM [13]: 102% | activity at 20 µM [14]: 92% | activity at 20 µM [15]: 96% | activity at 20 µM [16]: 98% | activity at 20 µM [17]: 118% | activity at 20 µM [18]: 100% | activity at 20 µM [19]: 100% | activity at 20 µM [20]: 101% | activity at 20 µM [21]: 115% | activity at 20 µM [22]: 107% | activity at 20 µM [23]: 94% | activity at 20 µM [24]: 118% | activity at 20 µM [25]: 114% | IL-1β production with diverse TLR ligands [26]: suppressed IL-1β production | activity at 20 µM [27]: 103% | activity at 20 µM [28]: 113% | activity at 20 µM [29]: 98% | activity at 20 µM [30]: 88% | activity at 20 µM [31]: 88% | activity at 20 µM [32]: 104% | activity at 20 µM [33]: 90% | activity at 20 µM [34]: 94% | activity at 20 µM [35]: 104% | activity at 20 µM [36]: 90% | activity at 20 µM [37]: 87% | activity at 20 µM [38]: 112% | activity at 20 µM [39]: 114% | activity at 20 µM [40]: 78% | activity at 20 µM [41]: 102% | activity at 20 µM [42]: 91% | activity at 20 µM [43]: 105% | activity at 20 µM [44]: 84%

CN(C)c1cc(-c2ccncc2)c(-c2ccc3ccccc3c2)nn1 [MW108, N, N-dimethyl-6-(naphthalen-2-yl)-5-(pyridin-4-yl)pyridazin-3-amine]
activity at 20 µM [1]: 78% | activity at 20 µM [2]: 102% | activity at 20 µM [3]: 90% | activity at 20 µM [4]: 96% | activity at 20 µM [5]: 84% | activity at 20 µM [6]: 97% | activity at 20 µM [7]: 101% | activity at 20 µM [8]: 83% | activity at 20 µM [9]: 97% | activity at 20 µM [10]: 103% | activity at 20 µM [11]: 107% | activity at 20 µM [12]: 101% | activity at 20 µM [13]: 85% | activity at 20 µM [14]: 97% | IC50 [15]: > 30 µM | activity at 20 µM [15]: 38% | activity at 20 µM [16]: 92% | activity at 20 µM [17]: 108% | activity at 20 µM [18]: 101% | activity at 20 µM [19]: 90% | activity at 20 µM [20]: 102% | activity at 20 µM [21]: 94% | activity at 20 µM [22]: 103% | activity at 20 µM [23]: 91% | activity at 20 µM [24]: 86% | activity at 20 µM [25]: 134% | IL-1β production with diverse TLR ligands [26]: suppressed IL-1β production | activity at 20 µM [27]: 103% | activity at 20 µM [28]: 76% | activity at 20 µM [29]: 107% | activity at 20 µM [30]: 101% | activity at 20 µM [31]: 89% | activity at 20 µM [32]: 92% | activity at 20 µM [33]: 92% | activity at 20 µM [34]: 96% | activity at 20 µM [35]: 88% | activity at 20 µM [36]: 92% | activity at 20 µM [37]: 63% | activity at 20 µM [38]: 87% | activity at 20 µM [39]: 83% | activity at 20 µM [40]: 78% | activity at 20 µM [41]: 108% | activity at 20 µM [42]: 83% | activity at 20 µM [43]: 94% | activity at 20 µM [44]: 57%
